Measurements as given in patent publication US20160339094A1, “BACTERIAL INFLUENCE OF HOST FEEDING AND EMOTION VIA CLPB PROTEIN MIMICRY OF A-MSH” (priority 2013, published 2016).

Columns and labels:
C57B16 mice [1] = test: Locomotor activity and anxiety tests (open field, elevated O-maze) in immunized mice; assay type: in vivo
Protocol: After the feeding study, mice were placed in individual mouse holding cages with food and water available ad libitum and were analyzed for locomotor activity and anxiety in O-maze tests performed during two consecutive days. Two hours after the O-maze test, mice were killed by decapitation in a guillotine and trunk blood was collected into EDTA-containing tubes. Plasma was separated by centrifugation at 3,500 r.p.m. ([…]) for 10 min at 4° C. and stored at −80° C. before assay.
After feeding study in the BioDAQ cages, mice were analyzed for locomotor activity using a Versamax Animal Activity Monitor (AccuScan Instruments, Inc., Columbus, Ohio). Next day after the locomotor activity test all mice were tested for their anxiety in an elevated-O-maze. The elevated-O-maze is a variation of more commonly used elevated-plus-maze pharmacologically validated for anxiety testing in rodents (Crawley, J. N. and Bailey, K. R., Methods of behavior analysis in neuroscience, 77-101 (CRC Press, 2009)). The advantage of the O-maze is that it lacks the ambiguous central square of the traditional plus-maze. The O-maze (Med Associate, Inc., St. Albans, Vt.) consisted of a circular infrared platform (outer diameter 120 cm) elevated 80 cm above the floor, featuring two open and two closed segments made of grey plastic. The closed segments were enclosed by walls extending 20 cm above the surface of the maze and covered with a black infrared Plexiglas lid. Each test started by placing the mouse into one of the two closed segments. The test lasted 5 min and was recorded using a video-camera placed above the O-maze and the EthoVision video tracking software (Noldus IT, Wageningen, The Netherlands). Measurements of distance and time spent in the open and closed segments were analyzed. Between each mouse tests, the O-maze was cleaned with a 30% alcohol.

C57B16 mice [2] = test: ClpB immunization in mice: plasma ClpB-, α-MSH- and ACTH-reactive autoantibody ELISA; assay type: in vivo
Protocol: Two month-old male C57B16 mice (Janvier Labs L'Arbresle, France) were acclimated to the animal facility for with 12 h light-dark cycle, lights on at 7:00 a.m. and were kept in standard mouse holding cages (n=8) in each. […] During acclimatization mice were distributed between four cages to obtain the similar mean body weight per mouse per cage. After one week of acclimatization, mice from each cage were assigned to one of four study group and received following treatments: i) Group 1, ClpB immunization (n=8): ClpB protein (Delphi Genetics) 50 μg/mouse in 200 μl of 1:1 vol. of PBS with Complete Freund's Adjuvant (CFA, Sigma), intraperitoneally (I.P.); ii) Group 2, adjuvant injection controls (n=8): 200 μl of CFA in PBS (1:1 vol., I.P.); iii) Group 3, PBS injection controls (n=8): 200 μl of PBS (I.P.) and iiii) Group 4, Intact controls (n=8): received no injections, and then all mice were returned to their holding cages. Fifteen days later, mice were given a boost immunization and the following treatments: i) Group 1 (n=8), ClpB protein (Delphi Genetics) 50 μg/mouse in 200 μl of 1:1 vol. of PBS with Incomplete Freund's Adjuvant (IFA, Sigma) I.P.; ii) Group 2 (n=8): 200 ═l of IFA in PBS (1:1 vol., I.P.); iii) Group 3, (n=8): 200 ═l of PBS (I.P.) and iiii) Group 4, (n=8): received no injections.
Two hours after the O-maze test, mice were killed by decapitation in a guillotine and trunk blood was collected into EDTA-containing tubes. Plasma was separated by centrifugation at 3,500 r.p.m. (1.4 g) for 10 min at 4° C. and stored at −80° C. before assay.
Plates were washed (5 min×3) in phosphate-buffered saline (PBS) with 0.05% Tween 200, pH 7.4, and then incubated overnight at 4° C. with 100 μl of mouse or rat plasma diluted 1:200 in PBS to determine free autoAbs levels or diluted 1:200 in dissociative 3 M NaCl, 1.5 M glycine buffer, pH 8.9 to determine total autoAbs levels. The plates were washed (3×) and incubated with 100 μl of alkaline phosphatase (AP)-conjugated goat anti-rat IgG (1:2000), anti-rat IgM (1:1000), anti-mouse IgG (1:2000), or anti-mouse IgM (1:1000) all from Jackson ImmunoResearch Laboratories, Inc. (West Grove, Pa.). Following washing (3×), 100 μl of p-nitrophenyl phosphate solution (Sigma) was added as alkaline phosphatase substrate. After 40 min of incubation at room temperature, the reaction was stopped by adding 3N NaOH. The OD was determined at 405 nm using a microplate reader Metertech 960 (Metertech Inc., Taipei, Taiwan). Blank OD values resulting from the reading of plates without addition of plasma samples were subtracted from the sample OD values. Each determination was done in duplicate. The variation between duplicate values was less than 5%.

[3] = system: polyclonal rabbit anti-α-MSH antisera
Protocol: Following 2D-PAGE, E. coli cytoplasmic proteins were transferred onto Hybond-ECL PVDF membrane (GE Healthcare) by using a dry transfer method (Trans Blot Cell, Biorad, USA) and a constant current of 0.8 mA/cm^2 of the membrane size for 2 h. After transfer, membranes were blocked with 5% (wt:v) milk (Regilait, France) in phosphate buffered saline (PBS; 10 mmol/L […], pH 8; 150 mmol/L NaCl) plus 0.05% (v:v) Tween 20.
The recombinant ClpB protein was customly produced by Delphi Genetics SA, (Gosselies, Belgium) in bacterial cultures by the ClpB cDNA synthesis and cloning into an expression vector.

C57B16 mice [4] = test: ClpB immunization in mice: body weight, food intake and feeding pattern (BioDAQ cages); assay type: in vivo
Protocol: Animal care and experimentation were in accordance with guidelines established by the National Institutes of Health, USA and complied with both French and European Community regulations (Official Journal of the European Community L 358, 18 Dec. 1986). Two month-old male C57B16 mice (Janvier Labs L'Arbresle, France) were acclimated to the animal facility for with 12 h light-dark cycle, lights on at 7:00 a.m. and were kept in standard mouse holding cages (n=8) in each. Mice were fed ad libitum with standard pelleted rodent chow (RM1 diet, SDS, UK) with drinking water always available and were manipulated daily by gentle holding and measuring body weight. During acclimatization mice were distributed between four cages to obtain the similar mean body weight per mouse per cage. After one week of acclimatization, mice from each cage were assigned to one of four study group and received following treatments: i) Group 1, ClpB immunization (n=8): ClpB protein (Delphi Genetics) 50 μg/mouse in 200 μl of 1:1 vol. of PBS with Complete Freund's Adjuvant (CFA, Sigma), intraperitoneally (I.P.); ii) Group 2, adjuvant injection controls (n=8): 200 μl of CFA in PBS (1:1 vol., I.P.); iii) Group 3, PBS injection controls (n=8): 200 μl of PBS (I.P.) and iiii) Group 4, Intact controls (n=8): received no injections, and then all mice were returned to their holding cages. Fifteen days later, mice were given a boost immunization and the following treatments: i) Group 1 (n=8), ClpB protein (Delphi Genetics) 50 μg/mouse in 200 μl of 1:1 vol. of PBS with Incomplete Freund's Adjuvant (IFA, Sigma) I.P.; ii) Group 2 (n=8): 200 ═l of IFA in PBS (1:1 vol., I.P.); iii) Group 3, (n=8): 200 ═l of PBS (I.P.) and iiii) Group 4, (n=8): received no injections.
Next day after the boost, mice were placed individually in the BioDAQ mouse cages (Research Diets, Inc., New Brunswick, N.J.) each equipped with an automatic feeding monitor. Food (SERLAB, Montataire France) and drinking water were available ad libitum and body weight was measured daily. After three days of acclimation to the BioDAQ cages, mice received the following treatments: Groups 1, 2 and 3 (each n=8) i.e. mice which have been immunized with ClpB; injected with adjuvants and with PBS, respectively, […] PBS (I.P.) at 10 a.m. The control mice (n=8) received PBS only (I.P.). Feeding data was continuously monitored and analysed using the BioDAQ data viewer 2.3.07 (Research Diets). For the meal pattern analysis, the inter-meal interval was set at 300 sec.

ClpB = ClpB (Escherichia coli, UniProt P63284); details: plasma extracted IgG of ClpB immunized mice vs other groups; SPR
Chain of ClpB (P63284 whole entry): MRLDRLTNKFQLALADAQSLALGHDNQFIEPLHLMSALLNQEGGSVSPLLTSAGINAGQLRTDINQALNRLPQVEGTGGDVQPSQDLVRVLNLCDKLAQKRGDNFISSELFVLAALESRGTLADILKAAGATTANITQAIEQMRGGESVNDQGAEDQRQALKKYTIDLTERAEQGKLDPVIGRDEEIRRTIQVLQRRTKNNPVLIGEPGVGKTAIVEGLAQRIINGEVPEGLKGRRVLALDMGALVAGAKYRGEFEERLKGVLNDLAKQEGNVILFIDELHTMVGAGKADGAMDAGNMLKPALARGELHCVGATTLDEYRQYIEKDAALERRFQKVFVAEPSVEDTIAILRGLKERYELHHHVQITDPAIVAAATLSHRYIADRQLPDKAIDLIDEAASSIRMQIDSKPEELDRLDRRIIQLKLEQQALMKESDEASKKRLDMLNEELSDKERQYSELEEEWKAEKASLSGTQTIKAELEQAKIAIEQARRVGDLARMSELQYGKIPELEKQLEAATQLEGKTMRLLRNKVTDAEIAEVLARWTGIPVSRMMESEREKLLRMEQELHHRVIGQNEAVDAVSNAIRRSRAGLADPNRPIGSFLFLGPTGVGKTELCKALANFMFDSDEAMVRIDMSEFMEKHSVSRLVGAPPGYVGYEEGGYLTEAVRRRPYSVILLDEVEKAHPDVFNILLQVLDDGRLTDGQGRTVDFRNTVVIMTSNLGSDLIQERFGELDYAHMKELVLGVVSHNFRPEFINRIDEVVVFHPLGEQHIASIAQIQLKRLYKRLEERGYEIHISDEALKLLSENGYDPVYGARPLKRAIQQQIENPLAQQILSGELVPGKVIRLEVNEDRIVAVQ
Protocol: (§1) Extraction of plasma globulins was done by plasma acidification and separation on C-18 SEP column (Phoenix Pharmaceuticals, Burlingame, Calif.) according to the manufacturer instructions. In detail, 500 μl of mouse or rat plasma was mixed with 500 μl of buffer A (1% trifluoroacetic acid TFA in water). The column was activated in 1 ml of buffer B (60% acetonitrile in 1% TFA) by 3 min centrifugation with 700 rpm and rinsed 3 times with 3 ml of buffer A. Diluted plasma (1:1 in buffer A) was added to the column and the effluent (1 ml) was saved (frozen at −20° C.) for further purification of IgG. Total IgG were purified from the effluents of rat plasma samples using the Melon Gel Kit (Thermo Fisher Scientific, Rockford, Ill.) according to the manufacturer instructions. In brief, plasma effluents diluted 1:4 in kit's purification buffer was added on washed melon gel deposited in a column. Column was spinned 1 min at 6,000 r.p.m. and the IgG containing effluent was saved and frozen at −20° C. before lyophilization. Lyophilized IgG were reconstituted in the HBS-EP buffer (GE Healthcare, Piscataway, N.J.).
(§2) For the affinity kinetic analysis, a multi-cycle method was run with five serial dilutions of each IgG sample: 3360, 1680, 840, 420 and 210 (nmol) including a duplicate of 840 nmol and a blank sample (HBS-EP buffer only).

α-MSH = α-MSH (Homo sapiens, UniProt P01189); details: IgG of ClpB immunized mice vs controls; SPR
Protocol: as §1, §2

[5] = day 22, single injection of α-MSH 100 μg/kg body weight, I.P., non-immunized vs ClpB-immunized vs controls

For “ClpB: recombinant 857 amino acid chaperone protein ClpB of E. coli K12 (SEQ ID NO: 1), injected I.P. with Freund's adjuvant for immunization”, the “parameters in the O-maze open arms” value (C57B16 mice [1]; ClpB group) was “did not significantly change”, the “time spent in the closed arms of the O-maze” value (C57B16 mice [1]; ClpB-immunized mice vs all other groups) was “less time” and the “distance moved in the closed arms of the O-maze” value (C57B16 mice [1]; ClpB-immunized mice vs controls) was “shorter distance”. For the same substance, the “time spent in the open vs. border areas” value (C57B16 mice [1]; open field, among the groups) was “did not significantly differ”, the total locomotor activity (C57B16 mice [1]; open field, among the groups) was “did not significantly differ” and the “plasma levels of α-MSH-reactive IgG” value (C57B16 mice [2]; ClpB immunized mice) was “Increased plasma levels”. The “plasma levels of ClpB IgG” value (C57B16 mice [2]; ClpB immunized mice vs other groups (adjuvant, PBS, controls)) was “higher plasma levels”, the “plasma ACTH-reactive IgG” value (C57B16 mice [2]; among the groups) was “No significant differences” and the “plasma levels of α-MSH IgM autoAbs” value (C57B16 mice [2]; between the groups) was “did not significantly differ”. The “Western blot detection by anti-α-MSH antiserum after trypsin digestion” value ([3]; ClpB digested by trypsin) was “No band was detected”, the “Western blot detection by anti-α-MSH antiserum” value ([3]; intact recombinant ClpB) was “single 96 kDa band” and the meal number (C57B16 mice [4]; BioDAQ) was “did not change”. The meal size (C57B16 mice [4]; BioDAQ, last 10 days) was “increased meal size”, the “higher mean daily food intake as compared to other groups” value (C57B16 mice [4]; BioDAQ, last 10 days of the experiment) was 13% and the “body weight for few days after injections” value (C57B16 mice [4]; ClpB and CFA, I.P., expected inflammatory response to immunization) was “lower body weight”. The “higher body weight vs. controls at the end of the experiment” value (C57B16 mice [4]; ClpB immunized mice, 32 days study) was 5%, the “24 h food intake following α-MSH injection” value (C57B16 mice [4]; [5]) was “did not differ from controls” and the “body weight 24 h following α-MSH injection” value (C57B16 mice [4]; [5]) was “did not differ from controls”. For the same substance, the “affinity of anti-ClpB IgG for ClpB” value (ClpB) was “lower affinities” and the “affinity of IgG for α-MSH” value (α-MSH) was “lower affinities for α-MSH”.
